# Experimental data as given in PubChem BioAssay AID1645865 (Buhrlage Lab, Dana-Farber Cancer Institute and Novartis …, 2021).
# The source made the active and inactive calls.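 How the source made its calls: active means maximal inhibition of the USP30 enzyme reaching 30% or more across the dose series; inactive means the rest.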
# Target: Ubiquitin carboxyl-terminal hydrolase 30 (Homo sapiens) (UniProt Q70CQ3)
# Assay: inhibitors of ubiquitin-specific protease 30 deubiquitylating enzyme, concentration dependence, in vitro biochemical, validation of primary hits (AID 1645865)
# Conditions: purified USP30, Ub-rhodamine cleavage, fluorescence, 2 h
# Chain of Ubiquitin carboxyl-terminal hydrolase 30 (Homo sapiens) (Q70CQ3 whole entry, looked up): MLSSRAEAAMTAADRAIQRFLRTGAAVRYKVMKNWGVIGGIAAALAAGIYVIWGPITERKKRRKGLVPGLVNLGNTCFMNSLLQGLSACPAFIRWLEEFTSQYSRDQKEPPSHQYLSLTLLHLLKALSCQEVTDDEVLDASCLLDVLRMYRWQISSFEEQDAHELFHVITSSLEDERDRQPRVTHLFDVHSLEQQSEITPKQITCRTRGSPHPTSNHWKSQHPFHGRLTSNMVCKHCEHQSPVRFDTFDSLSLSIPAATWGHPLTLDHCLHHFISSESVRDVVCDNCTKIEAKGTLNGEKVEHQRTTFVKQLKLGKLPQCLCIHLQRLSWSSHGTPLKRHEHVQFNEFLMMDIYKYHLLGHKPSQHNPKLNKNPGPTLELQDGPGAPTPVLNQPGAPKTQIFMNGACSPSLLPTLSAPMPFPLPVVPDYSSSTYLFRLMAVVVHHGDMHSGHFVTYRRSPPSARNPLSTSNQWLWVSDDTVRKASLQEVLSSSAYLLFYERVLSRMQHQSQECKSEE
row,IC50,SMILES
1,> 50 µM (inactive),Cc1nc(Nc2c3ccccc3nc3ccccc23)sc1C
2,> 50 µM (inactive),CC(=O)N1CCc2cc(CNC(=O)Nc3cc(C)ccc3C)ccc21
3,> 50 µM (inactive),O=C(COc1nc2ccccc2nc1N1CCOCC1)Nc1cccc(S(=O)(=O)N2CCCCC2)c1
4,32.9 µM,Cc1nc2c3ccccc3nc(NCc3ccc4c(c3)OCO4)n2n1
5,> 50 µM (inactive),CC(Sc1n[nH]c2nc3ccccc3n12)C(=O)Nc1ccc2c(c1)OCCO2 (configuration not stated)
6,> 50 µM (inactive),O=C(COc1ccc(F)cc1)Nc1cc(F)c2nc(N3CCOCC3)ccc2c1
7,19.4 µM,Cc1nn(Cc2ccccc2)c2sc(C(=O)Nc3nc4ccccc4[nH]3)cc12
8,1.57 µM,CCOC(=O)c1ccc(NC(=O)Cn2c(=O)n(CC(=O)NCCc3ccc(OC)c(OC)c3)c(=O)c3sccc32)cc1
9,> 50 µM (inactive),COc1cccc(-c2nc3cnccn3c2NCc2ccc3c(c2)OCO3)c1
10,8.81 µM,Cc1ccc2c(c1)c(=O)c(C(=O)c1ccccc1)cn2CC(=O)Nc1ccccc1
11,> 50 µM (inactive),Cc1ccc(C(C)C)cc1OCCOCCN1CCNCC1
12,45.2 µM,COCCn1ccc2nc(C)c(C(=O)Nc3ccc4c(c3)OCCO4)cc2c1=O
13,35.8 µM,Cc1ccccc1-c1nc(CN(C)S(=O)(=O)c2ccccc2)c(C)o1
14,> 50 µM (inactive),O=C(COc1nsnc1N1CCOCC1)Nc1ccc(F)c(F)c1
15,3.45 µM,CCOc1ccc(-c2noc(-c3nn(-c4cccc(OC)c4)ccc3=O)n2)cc1
16,1.59 µM,COc1ccc(OC)c(NC(=O)c2cc(Cl)ccc2OC)c1
17,> 50 µM (inactive),Cc1ccc2c(c1)-c1c(c(C(=O)N3CCN(c4ccccc4)CC3)nn1C)CS2
18,> 50 µM (inactive),COc1ccc(Cl)cc1-n1nnc(C(=O)N2CCc3ccccc3C2)c1C
19,2.09 µM,CC[C@H](C)C[C@H]1CC[C@](O)([C@](C)(O)C(=O)N[C@@H]2C(=O)N3NCCC[C@@H]3C(=O)N(O)[C@@H](C)C(=O)NCC(=O)N3NCCC[C@H]3C(=O)N(O)[C@H](C)C(=O)O[C@H]2C(C)C)O[C@@H]1C
20,> 50 µM (inactive),CN[C@H]1CC2(CCN(C(=O)CCCn3cccn3)CC2)OC[C@]1(C)O
21,25.6 µM,Cc1ccc(NC(=O)Cn2c(-n3nc(C)cc3C)nc3c(c2=O)CCCC3)c(C)c1
22,2.68 µM,Cc1cc(N2CCN(c3ncccn3)CC2)nc2ccc(NC(=O)c3ccncc3)cc12
23,22.5 µM,COc1ccc(NC(=O)C2CC(=O)Nc3cc(-c4ccccc4)nn32)cc1 (configuration not stated)

row,IC50,SMILES
1,> 50 µM (inactive),Cn1c(C(=O)NCc2ccccn2)cc2c(=O)[nH]c3ccccc3c21
2,> 50 µM (inactive),Nc1c(C(=O)c2cccs2)oc2nc(-c3ccccc3)cc(-c3ccco3)c12
3,> 50 µM (inactive),COc1ccc(NC(=O)C2CCN(c3cncnc3N(C)C)CC2)cc1OC
4,2.24 µM,Cc1cc(C(=O)Nc2ccc3nc(N4CCN(c5ncccn5)CC4)cc(C)c3c2)ccc1[N+](=O)[O-]
5,15.5 µM,Cc1ccccc1OCCSc1nc2ccccc2n1CC(=O)NC1CC1
6,> 50 µM (inactive),Cc1cc(Cl)ccc1NC(=O)c1cc(-c2cccnc2)n[nH]1
7,31.7 µM,COCCNC(=O)Cn1c(=O)n(Cc2ccccc2)c(=O)c2c3c(sc21)CCC3
8,> 50 µM (inactive),Cc1csc2ncc(C(=O)N3CCN(c4ccccc4F)CC3)c(=O)n12
9,39.1 µM,Cc1nc(-c2noc(-c3ccncc3)n2)cn1CC(=O)N1CCN(c2ccc(F)cc2)CC1
10,> 50 µM (inactive),Cc1sc(NC(=O)/C=C/c2ccco2)nc1-c1ccccc1
11,14.9 µM,FC(F)(F)c1cccc(CSc2ccc3nnc(-c4ccccn4)n3n2)c1
12,> 50 µM (inactive),CCCNC(=O)c1ccn(-c2ccc3ccc(-c4cnn(C)c4)cn23)n1
13,> 50 µM (inactive),COc1ccc(C2C(C(=O)C(C)(C)C)N3c4ccccc4C=CC3C23C(=O)c2ccccc2C3=O)c(OC)c1 (configuration not stated)
14,> 50 µM (inactive),Cc1noc(C)c1S(=O)(=O)Nc1ccc(C(=O)Nc2ccc3c(c2)OCCO3)cc1
15,2.41 µM,Cc1ccccc1C(=O)c1ccc(C(=O)NC2CCCCCC2)[nH]1
16,22.2 µM,COc1cccc(NC(=O)C2Cc3ccccc3N2C(=O)c2ccccc2)c1 (configuration not stated)
17,> 50 µM (inactive),CCN1C(=O)c2cccnc2Sc2cc(NC(=O)c3ccc(Cl)s3)ccc21
18,31.9 µM,COc1ccc(-n2cc(C(=O)NCc3ccc4c(c3)OCO4)c3ccccc3c2=O)cc1
19,18.5 µM,COc1ccc(/C=C/C(=O)Nc2c3c(nc4c2CCC4)CCCC3)cc1
20,20.9 µM,Cc1cccc(NC(=O)Cn2c(N3CCOCC3)nc3cc(C)n(C)c3c2=O)c1
21,4.76 µM,CCCC[C@@H](C)/C=C(C)/C=C(\C)C(=O)NC1=C[C@](O)(/C=C/C=C/C=C/C(=O)NC2=C(O)CCC2=O)[C@@H]2O[C@@H]2C1=O
22,> 50 µM (inactive),COc1ccc(NC(=O)c2ccc(Nc3nnc(C)c4ccccc34)cc2)cc1
23,1.92 µM,COc1ccc(Cn2c(=O)[nH]c3cc(C(=O)NCCCN4CCN(c5cccc(Cl)c5)CC4)ccc3c2=O)cc1

# Further lines, the compound ahead of its results:
row,SMILES,IC50
1,Cc1cc(C(=O)Nc2ccc3c(c2)OCCO3)no1,> 50 µM (inactive)
2,Fc1ccc(Nc2nc(Nc3cccc(F)c3)nc3nccnc23)cc1,> 50 µM (inactive)
3,CC(C)OC(=O)c1cc2c(ccn2-c2ccc(F)cc2)n1CC(=O)NC1CCCCC1,> 50 µM (inactive)
4,O=C(COc1ccc2oc3c(c2c1)CCCC3)Nc1ccccn1,30.6 µM
5,CC(c1ccccc1)n1c(-c2ccc(F)cc2)nc2c(c(=O)c3ccccc3n2C)c1=O (configuration not stated),2.06 µM
6,Nc1nc(OCc2ccccc2)c2[nH]c(/C=C/c3cccs3)nc2n1,35.6 µM
7,Cc1ccc(C(=O)NCC(=O)Nc2nc3ccccc3[nH]2)c(C)c1,39.6 µM
8,COc1cc(NC(=O)Cn2nc(-c3ccc(F)cc3)ccc2=O)ccc1-n1cnnn1,1.74 µM
9,N#C/C(=C/c1sc(N2CCOCC2)nc1-c1ccccc1)c1ccccn1,> 50 µM (inactive)
10,CC(C)(C)OC(=O)N1CCN(C(=O)Cn2c(=O)nc(-c3ccccc3)c3ccccc32)CC1,> 50 µM (inactive)
11,Cc1ccc(-n2c(=O)c3ccccc3n(Cc3c(F)cccc3Cl)c2=O)cc1,2.25 µM
12,Cc1cc(C)nc(-n2nc(C)c3c2NC(=O)CSC3c2ccccc2F)n1 (configuration not stated),29.5 µM
13,Fc1cnc(N2CC[C@H]3CO[C@H](CNc4ncccn4)[C@H]3C2)nc1,> 50 µM (inactive)
14,Cc1ccc(CNC(=O)c2ccc(N3C(=O)[C@@H]4Cc5ccccc5CN4C3=O)cc2)cc1,23.6 µM
15,Cc1nc(-c2ccccc2F)sc1C(=O)Nc1cccnc1,> 50 µM (inactive)
16,Cc1cc(/C=C2/C(=N)N3C(c4ccccc4)=CSC3=NC2=O)c(C)n1-c1ccc2ccccc2c1,> 50 µM (inactive)
17,N#Cc1cccc(S(=O)(=O)N2CCc3nc4ccccc4n3CC2)c1,20.3 µM
18,CC1Oc2cc3c(-c4c(O)cc(O)c5c(O)c6c(cc45)OC(C)C(C)C6=O)c(O)cc(O)c3c(O)c2C(=O)C1C (configuration not stated),4.98 µM
19,CCC(C)Oc1cccc(C(=O)Nc2ccc(CN3CCOCC3)cc2)c1 (configuration not stated),> 50 µM (inactive)
20,O=C(COc1ccc(Cl)cc1)Nc1noc(-c2ccccc2)n1,25.8 µM
21,COc1ccc(CCNC(=O)COc2ncnc3oc(C)c(C)c23)cc1OC,> 50 µM (inactive)
22,COC(=O)c1ccc2c(=O)n(CCCCCC(=O)NCCc3ccc(S(N)(=O)=O)cc3)c(=O)[nH]c2c1,6.13 µM
23,CCN(CC)C(=O)CN1CCCC(c2ncncc2-c2cc(C)no2)C1 (configuration not stated),> 50 µM (inactive)
24,COc1ccccc1S(=O)(=O)N1CC[C@@H]2CN(C)[C@@H]2C1,32.2 µM
25,O=C(Cc1cc(-c2ccc(F)cc2)on1)NCc1ccccc1,18.3 µM
26,CN(C)S(=O)(=O)c1ccc(C(=O)Nc2c(C#N)oc3ccccc23)cc1,> 50 µM (inactive)

row,SMILES,IC50
1,c1csc(CCN2CCc3nc4cccnc4cc3C2)c1,> 50 µM (inactive)
2,O=C(Cc1cccnc1)Nc1ccc(N2CCN(C3CCCCC3)C2=O)nc1,> 50 µM (inactive)
3,Cc1ccc(NC(=O)c2ccc(Nc3nnc(C)c4ccccc34)cc2)cc1,43.2 µM
4,O=C(COC(=O)C1CCCN1C(=O)C12CC3CC(CC(C3)C1)C2)c1ccc(Cl)cc1 (configuration not stated),6.49 µM
5,O=C(COc1cc([N+](=O)[O-])cc2cccnc12)NCCC1=CCCCC1,28.3 µM
6,Cc1ccccc1NC(=O)c1ccn(COc2ccc(Cl)cc2)n1,> 50 µM (inactive)
7,O=C(c1ccc2cc[nH]c2c1)N1CCC(Nc2cccnc2)C1 (configuration not stated),> 50 µM (inactive)
8,O=C(Cc1cccs1)Nc1cc(F)c2nc(N3CCOCC3)ccc2c1,> 50 µM (inactive)
9,COc1cc(OC)cc(C(=O)Nc2cnc(-c3ccccc3)nc2)c1,> 50 µM (inactive)
10,COc1ccc(C2CC(=O)Nc3n[nH]c(-c4ccccc4)c32)cc1OC (configuration not stated),18.8 µM
11,CN1CC2CN(C(=O)c3ccc(F)cc3)CCN2Cc2ccccc21 (configuration not stated),> 50 µM (inactive)
12,COc1cccc(N2CCN(C(=O)c3cc(NC(C)=O)cc4nc(C)ccc34)CC2)c1,> 50 µM (inactive)
13,Cc1ccc(Cl)cc1NC(=O)COC(=O)c1ccc2ccccc2n1,> 50 µM (inactive)
14,CC(C)N1C[C@@H]2C[C@H](NS(=O)(=O)c3cccc(C#N)c3)CN2Cc2ccccc21,> 50 µM (inactive)
15,O=C(CCCC(=O)c1ccccc1)Nc1ccc(F)cc1,31.4 µM
16,NS(=O)(=O)c1cc(C(=O)OCC(=O)NC2CCCc3ccccc32)ccc1Cl (configuration not stated),> 50 µM (inactive)
17,CNc1nc2c(c(=O)n1C)CN(C(=O)Nc1cccc3ccccc13)CC2,> 50 µM (inactive)
18,COc1cccc(-c2cc(C(=O)Nc3cc(C)n(Cc4ccc(Cl)cc4)n3)no2)c1,4.38 µM
19,COc1ccc(C2/C(=C(\O)c3ccccc3)C(=O)C(=O)N2c2nc3ccc(F)cc3s2)cc1 (configuration not stated),43.1 µM
20,CC(C)N1CC2CN(Cc3ccc(Cl)cc3)CCN2Cc2ccccc21 (configuration not stated),> 50 µM (inactive)
21,COc1cccc2cc(C(=O)Nc3ccc4c(c3)OCCO4)oc12,> 50 µM (inactive)
22,CCOc1ccc2[nH]c3c(=O)n(CCc4ccc(OC)cc4)cnc3c2c1,2.05 µM
23,CC(C)c1ccc(C(C(=O)NC2CCCCC2)N(C(=O)c2cnccn2)c2cccc(F)c2)cc1 (configuration not stated),22.9 µM
24,CCN1CCN(C(=O)CCCN(c2ccccc2)S(C)(=O)=O)CC1,> 50 µM (inactive)
25,COc1ccc(/C=C/C(=O)Nc2cccc(S(=O)(=O)Nc3ccccc3Cl)c2)c(OC)c1,25.6 µM
